Experimental data as given in patent publication US10988465B2, “CXCR4 inhibitors and uses thereof” (X4 Pharmaceuticals, Inc., priority 2016, dated 2021).

Legend:
[1] = molecular target: T1, CXCR-4 transfected U87 cell line (U87.CXCR4) (Homo sapiens, UniProt P61073); experiment: Intracellular CXCL-12-induced calcium mobilization assay (FLIPR); format: cell-based; conditions: U87.CXCR4 cells; CXCL-12 25-50 ng/mL; compound added 15 min before; read-out: IC50 CXCL-12 Ca^2+ flux U87.CXCR4+
T1 construct: expressed in transfected cells; host or cells: U87 (U87.CXCR4)
Experimental: Example 36: REGA Screening Assay
Intracellular CXCL-12-Induced Calcium Mobilization Assay
Intracellular calcium mobilization induced by chemokines or chemokine-derived peptides were evaluated using a calcium responsive fluorescent probe and a FLIPR system. The CXCR-4 transfected U87 cell line (U87.CXCR4) cells were seeded in gelatine-coated black-wall 96-well plates at 20,000 cells per well and incubated for 12 hours. Cells were then loaded with the fluorescent calcium probe Fluo-2 acetoxymethyl at 4 μM final concentration in assay buffer (Hanks' balanced salt solution with 20 mM HEPES buffer and 0.2% bovine serum albumin, pH 7.4) for 45 min at 37° C. The intracellular calcium mobilization induced by the CXCL-12 (25-50 ng/mL) was then measured at 37° C. by monitoring the fluorescence as a function of time in all the wells simultaneously using a fluorometric imaging plate reader (FLIPR Tetra, Molecular Devices).

[2] = molecular target: T2, Jurkat cells expressing CXCR4 (Homo sapiens, UniProt P61073); experiment: Chemokine (CXCL12-AF647) binding inhibition assay; conditions: CXCL12-AF647 25 ng/mL, read-out: IC50 CXCL-12 binding Jurkat
T2 construct: endogenous in cells; host or cells: Jurkat
Experimental: Chemokine (CXCL12-AF647) Binding Inhibition Assay
Jurkat cells expressing CXCR4 were washed once with assay buffer (Hanks' balanced salt solution with 20 mM HEPES buffer and 0.2% bovine serum albumin, pH 7.4) and then incubated for 15 min at room temperature with the test compounds diluted in assay buffer at dose-dependent concentrations. Subsequently, CXCL12-AF647 (25 ng/mL) was added to the compound-incubated cells. The cells were incubated for 30 min at room temperature. Thereafter, the cells were washed twice in assay buffer, fixed in 1% paraformaldehyde in PBS, and analyzed on the FL4 channel of a FACSCalibur flow cytometer equipped with a 635-nm red diode laser (Becton Dickinson, San Jose, Calif., USA).
The percentages of inhibition of CXCL12-AF647 binding were calculated according to the formula: [1−((MFI−MFINC)/(MFIPC−MFINC))]×100 where MFI is the mean fluorescence intensity of the cells incubated with CXCL12-AF647 in the presence of the inhibitor, MFINC is the mean fluorescence intensity measured in the negative control (i.e., autofluorescence of unlabeled cells), and MFIPC is the mean fluorescence intensity of the positive control (i.e., cells exposed to CXCL12-AF647 alone).

in vitro = conditions: human, Caco-2, pH 7.4
Experimental: Example 37: Caco-2 Permeability Assay
The goal of this assay was to evaluate the intestinal absorption potential of drug candidates using Caco-2 cell lines.
HBSS buffer with 0.3% DMSO and 5 μM LY: add 150 μL DMSO and 50 μL LY (5 mM) into 50 ml HBSS buffer (pH 7.4).
HBSS buffer with 0.1% DMSO and 5 μM LY: add 50 μL DMSO and 50 μL LY (5 mM) into 50 mL HBSS buffer (pH 7.4).
HBSS buffer with 0.3% DMSO: add 150 μL DMSO into 50 ml HBSS buffer (pH 7.4).
HBSS buffer with 0.1% DMSO: add 50 μL DMSO into 50 ml HBSS buffer (pH 7.4).
Prepare HBSS buffer with 0.4% DMSO: add 200 μL DMSO into 50 ml HBSS buffer (pH 7.4).
Prepare HBSS buffer with 0.4% DMSO and 5 μM LY: add 200 μL DMSO and 50 μL LY (5 mM) into 50 ml HBSS buffer (pH 7.4).
4. Measure TEER Take cell culture plate out of incubator, wash the cell monolayers with HBSS buffer, and then measure TEER values at Rm temperature. 5. Centrifuge Centrifuge the compound solution (from step 3) at 4000 rpm for 5 min before loading to donor chambers. 6. Dosing Add solution based on the volumes listed in the following table (make sure to take extra 100 μL of donor sample for T0 as Backup).
7. Apical LYT0 samples To determine LY concentration in the apical chember, take 100 μL sample from apical chambers into an opaque plate for LYT0. 8. Prewarm Prewarm apical and basolateral plates at 37° C. for about 5 min, then begin transport by placing the apical plate onto basolateral plate. 9. Incubation Keep the plates in incubator at 37° C. for 90 min. 10. Standard Curve preparation
11. Transport termination Separate the apical plate from the basolateral plate after 90-min incubation.
Receiver sample: 60 μL of receiver sample+60 μL ACN with IS (Osalmid or Imipramine)
Study details: Test concentration 10 μM
Test systems: Caco-2/HBSS solution
Incubation conditions: 0, 90 min at 37° C.
Sample size: Duplicates (n=2)
Bioanalytical method: LC-MS/MS
For Millicell-24 Cell Culture Plates: surface area of the membrane=0.7 cm^2, VA=0.8 mL (A-to-B) or 0.4 mL (B-to-A)
1. Papp values were calculated based on calculated concentrations.
The compound numbers correspond to the compound numbers in Table 1.

T2 sequence (P61073 whole entry): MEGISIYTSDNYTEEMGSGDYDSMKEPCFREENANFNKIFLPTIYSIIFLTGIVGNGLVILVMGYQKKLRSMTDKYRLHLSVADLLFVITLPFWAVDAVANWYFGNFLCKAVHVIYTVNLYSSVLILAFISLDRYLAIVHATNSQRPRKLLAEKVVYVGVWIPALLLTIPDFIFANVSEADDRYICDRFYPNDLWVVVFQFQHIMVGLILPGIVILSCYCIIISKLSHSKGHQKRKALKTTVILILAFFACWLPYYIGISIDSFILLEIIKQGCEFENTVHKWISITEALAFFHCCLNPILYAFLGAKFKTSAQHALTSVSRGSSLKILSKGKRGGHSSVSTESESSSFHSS
T1 sequence (P61073 whole entry): as above

| SMILES | IC50 [1] | IC50 [2] | Papp A→B at 90 min, 10 μM (in vitro) | Papp B→A at 90 min, 10 μM (in vitro) | efflux ratio at 90 min, 10 μM (in vitro) |
| --- | --- | --- | --- | --- | --- |
| Cc1cccnc1[C@@H]1CCC[C@H](c2nc3ccccc3n2CC2CCCN(C)C2)N1C (stereo partly drawn) [I-13, 2-((2R,6S)-1-methyl-6-(3-methylpyridin-2-yl)piperidin-2-yl)-1-((1-methylpiperidin-3-yl)methyl)-1H-benzo[d]imidazole] | 0.01 to 100 nM | 0.01 to 100 nM | 0.1 to 10 ×10⁻⁶ cm/s | 10 to 30 ×10⁻⁶ cm/s | 0.1 to 10 |
| Cc1cccnc1[C@@H]1CCC[C@H](c2nc3ccccc3n2CC2CCNCC2)N1C [I-14, 2-((2R,6S)-1-methyl-6-(3-methylpyridin-2-yl)piperidin-2-yl)-1-(piperidin-4-ylmethyl)-1H-benzo[d]imidazole] | 0.01 to 100 nM | 0.01 to 100 nM | 0.1 to 10 ×10⁻⁶ cm/s | 10 to 30 ×10⁻⁶ cm/s | > 30 |
| Cc1cccnc1[C@@H]1CCC[C@H](c2nc3ccccc3n2CCCNC2CCOCC2)N1C [I-19, N-(3-(2-((2R,6S)-1-methyl-6-(3-methylpyridin-2-yl)piperidin-2-yl)-1H-benzo[d]imidazol-1-yl)propyl)tetrahydro-2H-pyran-4-amine] | 0.01 to 100 nM | 0.01 to 100 nM | 0.1 to 10 ×10⁻⁶ cm/s | 10 to 30 ×10⁻⁶ cm/s | 0.1 to 10 |
| Cc1cccnc1[C@@H]1CCC[C@H](c2nc3ccccc3[nH]2)N1Cc1ccccc1-n1cccn1 [I-21, 2-((2R,6S)-1-(2-(1H-pyrazol-1-yl)benzyl)-6-(3-methylpyridin-2-yl)piperidin-2-yl)-1H-benzo[d]imidazole] | 0.01 to 100 nM | 0.01 to 100 nM | 10 to 30 ×10⁻⁶ cm/s | 10 to 30 ×10⁻⁶ cm/s | 0.1 to 10 |
| CCN1[C@@H](c2nc3ccccc3n2CC2CCN(C)CC2)CCC[C@H]1c1ncccc1C [I-25, 2-((2R,6S)-1-ethyl-6-(3-methylpyridin-2-yl)piperidin-2-yl)-1-((1-methylpiperidin-4-yl)methyl)-1H-benzo[d]imidazole] | 0.01 to 100 nM | 0.01 to 100 nM | 0.1 to 10 ×10⁻⁶ cm/s | 10 to 30 ×10⁻⁶ cm/s | 0.1 to 10 |
| Cc1cccnc1[C@@H]1CCC[C@H](c2nc3ccccc3[nH]2)N1CCc1ccccn1 [I-27, 2-((2R,6S)-6-(3-methylpyridin-2-yl)-1-(2-(pyridin-2-yl)ethyl)piperidin-2-yl)-1H-benzo[d]imidazole] | 0.01 to 100 nM | 0.01 to 100 nM | 10 to 30 ×10⁻⁶ cm/s | 10 to 30 ×10⁻⁶ cm/s | 0.1 to 10 |
| Cc1cccnc1[C@@H]1CCC[C@H](c2nc3ccccc3n2CCCN2CCC(F)(F)CC2)N1C [I-30, 1-(3-(4,4-difluoropiperidin-1-yl)propyl)-2-((2R,6S)-1-methyl-6-(3-methylpyridin-2-yl)piperidin-2-yl)-1H-benzo[d]imidazole] | 0.01 to 100 nM | 0.01 to 100 nM | 0.1 to 10 ×10⁻⁶ cm/s | 0.1 to 10 ×10⁻⁶ cm/s | 0.1 to 10 |
| Cc1cccnc1[C@@H]1CCC[C@H](c2nc3cccc(C4CCN(C)CC4)c3[nH]2)N1C [I-34] | 0.01 to 100 nM | 0.01 to 100 nM | 0.1 to 10 ×10⁻⁶ cm/s | 10 to 30 ×10⁻⁶ cm/s | 0.1 to 10 |

Results, then the molecule that gave them:

| IC50 [1] | IC50 [2] | Papp A→B at 90 min, 10 μM (in vitro) | Papp B→A at 90 min, 10 μM (in vitro) | efflux ratio at 90 min, 10 μM (in vitro) | SMILES |
| --- | --- | --- | --- | --- | --- |
| 0.01 to 100 nM | 0.01 to 100 nM | 0.1 to 10 ×10⁻⁶ cm/s | 10 to 30 ×10⁻⁶ cm/s | > 30 | CNCCCn1c([C@H]2CCC[C@@H](c3ncccc3C)N2C)nc2ccccc21 [I-16, N-methyl-3-(2-((2R,6S)-1-methyl-6-(3-methylpyridin-2-yl)piperidin-2-yl)-1H-benzo[d]imidazol-1-yl)propan-1-amine] |
| 0.01 to 100 nM | 0.01 to 100 nM | 0.1 to 10 ×10⁻⁶ cm/s | 0.1 to 10 ×10⁻⁶ cm/s | 0.1 to 10 | Cc1cccnc1[C@@H]1CCC[C@H](c2nc3ccccc3n2CCCN2CCN(C)CC2)N1C [I-17, 2-((2R,6S)-1-methyl-6-(3-methylpyridin-2-yl)piperidin-2-yl)-1-(3-(4-methylpiperazin-1-yl)propyl)-1H-benzo[d]imidazole] |
| 0.01 to 100 nM | 0.01 to 100 nM | 10 to 30 ×10⁻⁶ cm/s | 10 to 30 ×10⁻⁶ cm/s | 0.1 to 10 | Cc1cccnc1[C@@H]1CCC[C@H](c2nc3ccccc3n2CCCN2CCOCC2)N1C [I-18, 4-(3-(2-((2R,6S)-1-methyl-6-(3-methylpyridin-2-yl)piperidin-2-yl)-1H-benzo[d]imidazol-1-yl)-propyl)morpholine] |
| 0.01 to 100 nM | 0.01 to 100 nM | 0.1 to 10 ×10⁻⁶ cm/s | 10 to 30 ×10⁻⁶ cm/s | 0.1 to 10 | CCN1CCC(Cn2c([C@H]3CCC[C@@H](c4ncccc4C)N3C)nc3ccccc32)CC1 [I-22, 1-((1-ethylpiperidin-4-yl)methyl)-2-((2R,6S)-1-methyl-6-(3-methylpyridin-2-yl)piperidin-2-yl)-1H-benzo[d]imidazole] |
| ≥ 1000 nM | 100 to 1000 nM | 10 to 30 ×10⁻⁶ cm/s | 10 to 30 ×10⁻⁶ cm/s | 0.1 to 10 | Cc1cccnc1[C@@H]1CCC[C@H](c2nc3ccccc3n2CC2CCN(CC(F)(F)F)CC2)N1C [I-24, 2-((2R,6S)-1-methyl-6-(3-methylpyridin-2-yl)piperidin-2-yl)-1-((1-(2,2,2-trifluoroethyl)piperidin-4-yl)methyl)-1H-benzo[d]imidazole] |
| ≥ 1000 nM | ≥ 1000 nM | 10 to 30 ×10⁻⁶ cm/s | 10 to 30 ×10⁻⁶ cm/s | 0.1 to 10 | Cc1cccnc1[C@@H]1CCC[C@H](c2nc3ccccc3n2CC2CCN(C)CC2)N1CC(F)(F)F [I-26] |
| 100 to 1000 nM | 0.01 to 100 nM | 0.1 to 10 ×10⁻⁶ cm/s | 0.1 to 10 ×10⁻⁶ cm/s | 0.1 to 10 | CN1CCN(c2cccc3nc([C@H]4CCC[C@@H](c5ncccc5Br)N4C)[nH]c23)CC1 [I-28, 2-((2R,6S)-6-(3-bromopyridin-2-yl)-1-methylpiperidin-2-yl)-7-(4-methylpiperazin-1-yl)-1H-benzo[d]imidazole] |
| 100 to 1000 nM | 0.01 to 100 nM | 10 to 30 ×10⁻⁶ cm/s | 10 to 30 ×10⁻⁶ cm/s | 0.1 to 10 | CN1CCN(c2cccc3nc([C@H]4CCC[C@@H](c5ccccn5)N4C)[nH]c23)CC1 [I-29, 2-((2R,6S)-1-methyl-6-(pyridin-2-yl)piperidin-2-yl)-7-(4-methylpiperazin-1-yl)-1H-benzo[d]imidazole] |
| 0.01 to 100 nM | 0.01 to 100 nM | 0.1 to 10 ×10⁻⁶ cm/s | 0.1 to 10 ×10⁻⁶ cm/s | 0.1 to 10 | Cc1cccnc1[C@@H]1CCC[C@H](c2nc3cccc(N4CCN(C)CC4)c3n2C)N1C [I-35] |
